# Experimental data as given in patent US8703805B2 (Exelixis Patent Company LLC, priority 2005, dated 2014).
# pEC50: −log10 of the molar value.
# Test system: LXRα and/or LXRβ
# Assay: LXR/LXRE co-transfection assay (luciferase reporter, CV-1 cells)
# Type: cell-based, human
# Conditions: IC50 or EC50 for LXR (LXRα and/or LXRβ, not distinguished), tested as described in Example 109, CV-1 cells
# Procedure, shortened: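 Transient co-transfection of CV-1 cells with full-length human LXRα or LXRβ plus RXRα expression plasmids and an LXREx1-Tk-luciferase reporter; compounds (10 μM screen, ≤1% DMSO) incubated 20 h at 37 °C. Luminescence read after lysis; EC50/IC50 from 8-point half-log curves, efficacy relative to a high control or DMSO.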
row,pEC50,SMILES
1,5.00 to 6.00,"CC(C)(O)c1cc(-c2ccc(-c3cccc(S(C)(=O)=O)c3)s2)n(-c2ccncc2Cl)n1 [Example 112, 2-(1-(3-chloropyridin-4-yl)-5-(5-(3-(methylsulfonyl)phenyl)thiophen-2-yl)-1H-pyrazol-3-yl)propan-2-ol]"
2,5.00 to 6.00,"CS(=O)(=O)c1cccc(-c2ccc(-c3cc(C(=O)N4CCC(C(=O)O)CC4)nn3-c3ccccc3Cl)s2)c1 [Example 592, 1-(1-(2-chlorophenyl)-5-(5-(3-(methylsulfonyl)phenyl)thiophen-2-yl)-1H-pyrazole-3-carbonyl)piperidine-4-carboxylic acid]"
3,5.00 to 6.00,"CCS(=O)(=O)c1cccc(-c2ccc(-c3cc(C(C)(C)C(=O)O)nn3-c3ccccc3Cl)s2)c1 [Example 1302, 2-[1-(2-chlorophenyl)-5-{5-[3-(ethylsulfonyl)phenyl]-2-thienyl}-1H-pyrazol-3-yl]-2-methylpropanoic acid]"
4,> 6.00,"CS(=O)(=O)c1cccc(-c2ccc(-c3cc(C4(O)CCCC4)nn3-c3ccccc3Cl)s2)c1 [Example 1228, 1-[1-(2-chlorophenyl)-5-{5-[3-(methylsulfonyl)phenyl]-2-thienyl}-1H-pyrazol-3-yl]cyclopentanol]"
5,5.00 to 6.00,"CC(C)(O)c1cc(-c2ccc(-c3cccc(S(C)(=O)=O)c3)s2)n(-c2cccc(Cl)c2)n1 [Example 1256, 2-[1-(3-chlorophenyl)-5-{5-[3-(methylsulfonyl)phenyl]-2-thienyl}-1H-pyrazol-3-yl]propan-2-ol]"
6,> 6.00,"CC(C)(c1cc(-c2ccc(-c3cccc(S(C)(=O)=O)c3)s2)n(-c2ccccc2Cl)n1)N1CCOCC1 [Example 1159, 4-{1-[1-(2-chlorophenyl)-5-{5-[3-(methylsulfonyl)phenyl]-2-thienyl}-1H-pyrazol-3-yl]-1-methylethyl}morpholine]"
7,5.00 to 6.00,"Cc1n[nH]c(C)c1CN(C)Cc1cc(-c2ccc(-c3cccc(S(C)(=O)=O)c3)s2)n(-c2ccccc2Cl)n1 [Example 568, 1-[1-(2-chlorophenyl)-5-{5-[3-(methylsulfonyl)phenyl]-2-thienyl}-1H-pyrazol-3-yl]-N-[(3,5-dimethyl-1H-pyrazol-4-yl)methyl}-N-methylmethanamine]"
8,> 6.00,"CCCc1ccccc1-n1nc(C(C)(C)O)cc1-c1ccc(-c2cccc(S(C)(=O)=O)c2)s1 [Example 1330, 2-[5-{5-[3-(methylsulfonyl)phenyl]-2-thienyl}-1-(2-propylphenyl)-1H-pyrazol-3-yl]propan-2-ol]"
9,> 6.00,"CS(=O)(=O)c1cccc(-c2ccc(-c3cc(C(=O)N4CCCC4)nn3-c3ccccc3C(F)(F)F)s2)c1 [Example 1210, 5-{5-[3-(methylsulfonyl)phenyl]-2-thienyl}-3-(pyrrolidin-1-ylcarbonyl)-1-[2-(trifluoromethyl)phenyl]-1H-pyrazole]"
10,5.00 to 6.00,"CC(=O)c1cccc(-c2ccc(-c3cc(C(C)(C)O)nn3-c3ccccc3Cl)s2)c1 [Example 755, 1-(3-{5-[1-(2-chlorophenyl)-3-(1-hydroxy-1-methylethyl)-1H-pyrazol-5-yl]-2-thienyl}phenyl)ethanone]"
11,> 6.00,"CC(C)(CN)c1cc(-c2ccc(-c3cccc(S(C)(=O)=O)c3)s2)n(-c2ccccc2Cl)n1 [Example 1192, 2-[1-(2-chlorophenyl)-5-{5-[3-(methylsulfonyl)phenyl]-2-thienyl}-1H-pyrazol-3-yl]-2-methylpropan-1-amine]"
12,5.00 to 6.00,"CS(=O)(=O)c1cccc(-c2ccc(-c3cc(C(=O)Nc4cccc(C(F)(F)F)c4)nn3-c3ccccc3Cl)s2)c1 [Example 1133, 1-(2-chlorophenyl)-5-{5-[3-(methylsulfonyl)phenyl]-2-thienyl}-N-[3-(trifluoromethyl)phenyl]-1H-pyrazole-3-carboxamide]"

# Continued, compound first:
row,SMILES,pEC50
1,"CS(=O)(=O)c1cccc(-c2ccc(-c3cc(C(F)(F)F)nn3-c3ccccc3Oc3ccccc3)s2)c1 [Example 1215, 5-{5-[3-(methylsulfonyl)phenyl]-2-thienyl}-1-[2-(phenyloxy)phenyl]-3-(trifluoromethyl)-1H-pyrazole]",> 6.00
2,"CC(C)(O)c1nn(-c2ccc(-c3cccc(S(C)(=O)=O)c3)cc2Cl)c(-c2ccccc2Cl)c1Cl [Example 1423, 2-(4-chloro-1-(3-chloro-3′-(methylsulfonyl)biphenyl-4-yl)-5-(2-chlorophenyl)-1H-pyrazol-3-yl)propan-2-ol]",> 6.00
3,"CS(=O)(=O)c1cccc(-c2ccc(-c3cc(C(=O)N4CCCC4)nn3-c3c(Cl)cccc3Cl)c(Cl)c2)c1 [Example 143, (5-(3-chloro-3′-(methylsulfonyl)biphenyl-4-yl)-1-(2,6-dichlorophenyl)-1H-pyrazol-3-yl)(pyrrolidin-1-yl)methanone]",> 6.00
4,"CC(C)(O)c1cc(-c2ccc(-c3cccc(S(C)(=O)=O)c3)s2)n(-c2ccc(Cl)c(Cl)c2)n1 [Example 1324, 2-[1-(3,4-dichlorophenyl)-5-{5-[3-(methylsulfonyl)phenyl]-2-thienyl}-1H-pyrazol-3-yl]propan-2-ol]",5.00 to 6.00
5,"COc1ncc(-c2ccc(-c3cc(C(C)(C)O)nn3-c3ccccc3Cl)cc2)cn1 [Example 1291, 2-[1-(2-chlorophenyl)-5-{4-[2-(methyloxy)pyrimidin-5-yl]phenyl}-1H-pyrazol-3-yl]propan-2-ol]",5.00 to 6.00
6,"Cc1cc(-c2cccc(S(C)(=O)=O)c2)ccc1-c1cc(C(C)(C)O)nn1Cc1cccc(Cl)c1Cl [Example 1384, 2-(1-(2,3-dichlorobenzyl)-5-(3-methyl-3′-(methylsulfonyl)biphenyl-4-yl)-1H-pyrazol-3-yl)propan-2-ol]",> 6.00
7,"CC(C)(O)c1cc(-c2ccc(-c3cc(C(F)(F)F)nn3-c3c(Cl)cccc3Cl)s2)cc(S(C)(=O)=O)c1 [Example 1317, 2-[3-{5-[1-(2,6-dichlorophenyl)-3-(trifluoromethyl)-1H-pyrazol-5-yl]-2-thienyl}-5-(methylsulfonyl)phenyl]propan-2-ol]",> 6.00
8,"CC(C)(O)c1cc(-c2ccc(-c3cccc(S(C)(=O)=O)c3)s2)n(-c2cccc(C(F)(F)F)c2F)n1 [Example 1333, 2-(1-[2-fluoro-3-(trifluoromethyl)phenyl]-5-{5-[3-(methylsulfonyl)phenyl]-2-thienyl}-1H-pyrazol-3-yl)propan-2-ol]",5.00 to 6.00
9,"CS(=O)(=O)c1cccc(-c2ccc(-c3cc(C(=O)NCC(F)(F)F)nn3-c3cccnc3C(F)(F)F)c(Cl)c2)c1 [Example 1401, 5-(3-chloro-3′-(methylsulfonyl)biphenyl-4-yl)-N-(2,2,2-trifluoroethyl)-1-(2-(trifluoromethyl)pyridin-3-yl)-1H-pyrazole-3-carboxamide]",> 6.00
10,"CC(C)(O)c1cc(-c2cccc(Cl)c2Cl)n(-c2ccc(-c3cccc(S(C)(=O)=O)c3)cc2Cl)n1 [Example 135, 2-(1-(3-chloro-3′-(methylsulfonyl)biphenyl-4-yl)-5-(2,3-dichlorophenyl)-1H-pyrazol-3-yl)propan-2-ol]",> 6.00
11,"CS(=O)(=O)c1cccc(-c2ccc(-c3cc(C(=O)NCC(F)(F)F)nn3-c3ncccc3C(F)(F)F)s2)c1 [Example 1236, 5-{5-[3-(methylsulfonyl)phenyl]-2-thienyl}-N-(2,2,2-trifluoroethyl)-1-[3-(trifluoromethyl)pyridin-2-yl]-1H-pyrazole-3-carboxamide]",5.00 to 6.00
12,"Cc1cccc(C)c1-n1nc(C(C)(C)O)cc1-c1ccc(-c2cccc(S(C)(=O)=O)c2)s1 [Example 1352, 2-[1-(2,6-dimethylphenyl)-5-{5-[3-(methylsulfonyl)phenyl]-2-thienyl}-1H-pyrazol-3-yl]propan-2-ol]",> 6.00
13,"CS(=O)(=O)c1cccc(-c2ccc(-c3cc(C(F)(F)F)nn3-c3ccccc3Cl)cc2C(=O)N2CCOCC2)c1 [Example 1142, 4-({4-[1-(2-chlorophenyl)-3-(trifluoromethyl)-1H-pyrazol-5-yl]-3′-(methylsulfonyl)biphenyl-2-yl}carbonyl)morpholine]",5.00 to 6.00
14,"CC(C)(O)c1cccc(-n2nc(C(F)(F)F)cc2-c2ccc(-c3cccc(S(C)(=O)=O)c3)s2)c1 [Example 1187, 2-{3-[5-{5-[3-(methylsulfonyl)phenyl]-2-thienyl}-3-(trifluoromethyl)-1H-pyrazol-1-yl]phenyl}propan-2-ol]",> 6.00
15,"CC(C)(O)c1cc(-c2sc(-c3cccc(S(C)(=O)=O)c3)cc2Br)n(-c2cccc(F)c2C(F)(F)F)n1 [Example 49, 2-(5-(3-bromo-5-(3-(methylsulfonyl)phenyl)thiophen-2-yl)-1-(3-fluoro-2-(trifluoromethyl)phenyl)-1H-pyrazol-3-yl)propan-2-ol]",> 6.00
16,"CC(C)(O)c1cc(-c2ccc(-c3cccc(S(C)(=O)=O)c3)cc2Cl)n(-c2c(Cl)cccc2Cl)n1 [Example 142, 2-(5-(3-chloro-3′-(methylsulfonyl)biphenyl-4-yl)-1-(2,6-dichlorophenyl)-1H-pyrazol-3-yl)propan-2-ol]",> 6.00
17,"CC(C)(O)c1cc(-c2ccc(-c3ccc(C(F)(F)F)cc3Cl)cc2)n(-c2ccccc2Cl)n1 [Example 1288, 2-{1-(2-chlorophenyl)-5-[2′-chloro-4′-(trifluoromethyl)biphenyl-4-yl]-1H-pyrazol-3-yl}propan-2-ol]",5.00 to 6.00
18,"CC(C)S(=O)(=O)c1cccc(-c2ccc(-c3cc(C(C)(C)O)nn3-c3ncccc3C(F)(F)F)s2)c1 [Example 1184, 2-{5-(5-{3-[(1-methylethyl)sulfonyl]phenyl}-2-thienyl)-1-[3-(trifluoromethyl)pyridin-2-yl]-1H-pyrazol-3-yl}propan-2-ol]",5.00 to 6.00
19,"Cc1cc(-n2nc(C(C)(C)O)c(Cl)c2-c2c(Cl)cccc2Cl)ccc1-c1cccc(S(C)(=O)=O)c1 [Example 1419, 2-(4-chloro-5-(2,6-dichlorophenyl)-1-(2-methyl-3′-(methylsulfonyl)biphenyl-4-yl)-1H-pyrazol-3-yl)propan-2-ol]",5.00 to 6.00
20,"CC(C)(O)c1nn(-c2cnccc2C(F)(F)F)c(-c2ccc(-c3cccc(S(C)(=O)=O)c3)cc2)c1Cl [Example 109, 2-(4-chloro-5-(3′-(methylsulfonyl)biphenyl-4-yl)-1-(4-(trifluoromethyl)pyridin-3-yl)-1H-pyrazol-3-yl)propan-2-ol]",5.00 to 6.00
